Test systems include RPMI-8226; IGROV-1; T47D; NCI-H23; OVCAR-4; OVCAR-5; SF-295; SR; MCF7; UO-31; M14; NCI-H226; OVCAR-8; U-251; 786-0; HCT-116; SN12C; CCRF-CEM; MDA-N; UACC-257.
Holding throughout (assay): inhibition of tumour cell growth, NCI panel, 48 h

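Tested at 5 concentrations; 48 h exposure; 96-well plates; endpoints linearly interpolated, else capped at highest concentration. The concentration for 50% growth inhibition is given as GI50.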 Active and inactive are the calls of the source. No stated cut-off is given here; in the data, active = GI50 up to about 1.1 µM and inactive = higher. Bounds are passed on as bounds.

Turning to `COc1cc2[nH]c3c(c2cc1OC)CCN[C@@]31CC[C@@]2(CC3c4c(cc(OC)c(O)c42)CCN3C)C[C@@H]1OC` (stereo partly specified), the GI50 in the test with RPMI-8226 was 25.2 µM (inactive); with IGROV-1 it was 66.1 µM (inactive); in the test on T47D it was 20.5 µM (inactive); in the test with NCI-H23 it was > 79.1 µM (inactive); in the test with OVCAR-4, 29 µM (inactive); in the test on OVCAR-5, > 73.3 µM (inactive). The GI50 in the test with SF-295 was 21.2 µM (inactive); with SR, 12.5 µM (inactive); with MCF7, > 68.2 µM (inactive); with UO-31, 20.6 µM (inactive); with M14, 18 µM (inactive); in the test on NCI-H226, 46.5 µM (inactive). The GI50 in the test on OVCAR-8 is 30.9 µM (inactive); in the test with U-251, 29.2 µM (inactive); in the test on 786-0, 50.7 µM (inactive); with HCT-116 it was 28.6 µM (inactive); with SN12C it was 71.9 µM (inactive); in the test on CCRF-CEM it was 27.2 µM (inactive). Besides, the GI50 in the test with MDA-N is 18.7 µM (inactive); in the test on UACC-257 it was 17.8 µM (inactive).
As for `O=[N+]([O-])c1ccc(/N=N\c2c(O)c(S(=O)(=O)O)cc3cc(S(=O)(=O)O)ccc23)cc1`, the GI50 in the test with RPMI-8226, in the test with IGROV-1, in the test on T47D, in the test with NCI-H23, in the test with OVCAR-4 and in the test with OVCAR-5 was > 100 µM (inactive) throughout. Further, the GI50 in the test on SF-295, in the test with SR, in the test on MCF7, in the test with UO-31, in the test with M14 and with NCI-H226 was > 100 µM (inactive) in each case. Besides, the GI50 in the test with OVCAR-8, in the test on U-251, with 786-0, in the test with HCT-116, in the test with SN12C and in the test with CCRF-CEM was > 100 µM (inactive) each time. Further, the GI50 with MDA-N and in the test on UACC-257 was > 100 µM (inactive) in each case.
Regarding `CSC(SC)=C(C#N)C(=O)Nc1ccc(Cl)cc1`, the GI50 in the test on RPMI-8226 was 26.4 µM (inactive); in the test on T47D, 25.4 µM (inactive); in the test on NCI-H23 it was 30.2 µM (inactive); in the test on OVCAR-4, 29.9 µM (inactive); in the test with OVCAR-5 it was > 100 µM (inactive); in the test on SR, 38.1 µM (inactive). The GI50 was 41.8 µM (inactive) in the test on MCF7; 22 µM (inactive) in the test on UO-31; 48.4 µM (inactive) in the test on M14; 23.6 µM (inactive) in the test with NCI-H226; 52.8 µM (inactive) in the test with OVCAR-8; 91 µM (inactive) with U-251. Also, the GI50 in the test with 786-0 was 31.7 µM (inactive); with HCT-116, 29.1 µM (inactive); with SN12C it was > 100 µM (inactive); with CCRF-CEM it was 20.6 µM (inactive); in the test on MDA-N, 74.6 µM (inactive); with UACC-257, > 100 µM (inactive).
Regarding `COC(=O)C1Cc2ccc3c(c2C1=O)CCCC3` (stereo unspecified), the GI50 with RPMI-8226 was 24.7 µM (inactive); in the test with IGROV-1, > 100 µM (inactive); in the test with T47D, 23.2 µM (inactive); in the test on NCI-H23, 74.5 µM (inactive); with OVCAR-4, > 100 µM (inactive); in the test with OVCAR-5, > 100 µM (inactive). In addition, the GI50 is 71.4 µM (inactive) with SF-295; 26.7 µM (inactive) with SR; 73.6 µM (inactive) with MCF7; 61.4 µM (inactive) in the test on UO-31; > 100 µM (inactive) with M14; 92.9 µM (inactive) with NCI-H226. Moreover, the GI50 was 92.3 µM (inactive) with OVCAR-8; 61.9 µM (inactive) in the test on U-251; > 100 µM (inactive) in the test with 786-0; 39.7 µM (inactive) in the test on HCT-116; > 100 µM (inactive) in the test with SN12C; 39.2 µM (inactive) in the test with CCRF-CEM. For the same molecule, the GI50 in the test on MDA-N and in the test on UACC-257 was > 100 µM (inactive) throughout.
Take `N=c1c2c(=S)n(-c3ccccc3)c(=S)n(-c3ccccc3)c2nc(SCCCN2CCCCC2)n1-c1ccccc1`: the GI50 is 0.439 µM (active) in the test with RPMI-8226; 1.5 µM (inactive) in the test on IGROV-1; 2.14 µM (inactive) with T47D; 1.98 µM (inactive) with NCI-H23; 1.81 µM (inactive) in the test on OVCAR-4; 11.5 µM (inactive) in the test on OVCAR-5. The GI50 in the test on SF-295 is 4.91 µM (inactive); with SR, 0.558 µM (active); in the test with MCF7, 0.329 µM (active); in the test with M14, 1.69 µM (inactive); in the test on NCI-H226 it was 2.35 µM (inactive); in the test with OVCAR-8, 1.85 µM (inactive). The GI50 in the test with U-251 was 1.74 µM (inactive); with 786-0 it was 1.09 µM (active); in the test on HCT-116 it was 1.73 µM (inactive); with SN12C, 1.78 µM (inactive); in the test with CCRF-CEM, 0.413 µM (active); in the test with MDA-N, 1.77 µM (inactive). In the test with UACC-257, the GI50 was 1.75 µM (inactive).
Consider `COc1ccc(C(=O)/C=C/c2ccc(OCCCCCCCCCCOc3ccc(/C=C/C(=O)c4ccc(OC)c(OC)c4)cc3)cc2)c(OC)c1`, for which the GI50 in the test with RPMI-8226, in the test with IGROV-1, with T47D, with OVCAR-4, in the test with OVCAR-5 and in the test with SF-295 was > 100 µM (inactive) each time. Besides, the GI50 in the test with SR, in the test on MCF7, with UO-31, with M14, in the test on NCI-H226 and in the test on OVCAR-8 was > 100 µM (inactive) each time. For the same molecule, the GI50 in the test with U-251, with 786-0, in the test with HCT-116, in the test with SN12C, in the test on CCRF-CEM and in the test with MDA-N was > 100 µM (inactive) each time. In addition, the GI50 in the test with UACC-257 was > 100 µM (inactive).
Take `COC(=O)OC[C@H]1O[C@@H](n2cc(C)c(=O)[nH]c2=O)CC1OC(=O)OC` (stereo partly specified): the GI50 with RPMI-8226, in the test on IGROV-1, with T47D, in the test with NCI-H23, with OVCAR-4 and in the test on OVCAR-5 was > 100 µM (inactive) in each case. Also, the GI50 in the test on SF-295 is > 100 µM (inactive); in the test on SR, 61.7 µM (inactive); with MCF7, > 100 µM (inactive); with UO-31 it was > 100 µM (inactive); in the test with M14, > 100 µM (inactive); with NCI-H226, > 100 µM (inactive). The GI50 in the test on OVCAR-8, with U-251, in the test on 786-0, with SN12C, with CCRF-CEM and in the test with MDA-N was > 100 µM (inactive) each time.
As to `C/C(=C/CNc1ncnc2c1ncn2CCC(=O)O)CO`, the GI50 in the test on RPMI-8226, in the test on IGROV-1, in the test on T47D, with NCI-H23, in the test with OVCAR-4 and in the test with OVCAR-5 was > 100 µM (inactive) throughout. Moreover, the GI50 in the test with SF-295, in the test on SR, with MCF7, in the test with UO-31, in the test with M14 and in the test with NCI-H226 was > 100 µM (inactive) each time. Moreover, the GI50 in the test with OVCAR-8, in the test with 786-0, with HCT-116, in the test with SN12C, with CCRF-CEM and in the test with MDA-N was > 100 µM (inactive) throughout. Further, in the test on UACC-257, the GI50 was > 100 µM (inactive).
`O=C1Oc2cc3c(c4cccc1c24)O[C@H](c1ccccc1)[C@@H](c1ccccc1)[C@@H]3c1ccc(Cl)cc1`: the GI50 in the test with RPMI-8226 is 58.1 µM (inactive); in the test on IGROV-1, 22.8 µM (inactive); with T47D, 58.6 µM (inactive); in the test with NCI-H23, 34 µM (inactive); in the test on OVCAR-4 it was 82 µM (inactive); in the test with OVCAR-5 it was > 100 µM (inactive). In addition, the GI50 with SF-295 was 42.7 µM (inactive); in the test with SR, 18.8 µM (inactive); in the test on MCF7, > 100 µM (inactive); in the test on M14, 40.1 µM (inactive); in the test on NCI-H226, 76 µM (inactive); in the test on OVCAR-8 it was 16.2 µM (inactive). Further, the GI50 in the test with U-251 was 19.6 µM (inactive); with 786-0 it was 17.6 µM (inactive); in the test with HCT-116, 31.8 µM (inactive); with SN12C it was 79.4 µM (inactive); in the test on CCRF-CEM, 49 µM (inactive); in the test on MDA-N, > 100 µM (inactive). The GI50 with UACC-257 is > 100 µM (inactive).
For `Cc1ccc2c(c1)Sc1ccc(/N=N/N(C)C)cc1N2C`, the GI50 was 59.4 µM (inactive) in the test with RPMI-8226; > 100 µM (inactive) with IGROV-1; 31.7 µM (inactive) in the test on T47D; > 100 µM (inactive) with NCI-H23; > 100 µM (inactive) with OVCAR-4; > 100 µM (inactive) in the test on OVCAR-5. Besides, the GI50 is > 100 µM (inactive) in the test on SF-295; 52.8 µM (inactive) in the test on SR; 87.9 µM (inactive) in the test with MCF7; > 100 µM (inactive) in the test with UO-31; > 100 µM (inactive) with M14; > 100 µM (inactive) in the test on NCI-H226. For the same molecule, the GI50 in the test on OVCAR-8 is > 100 µM (inactive); in the test with U-251 it was > 100 µM (inactive); with 786-0, > 100 µM (inactive); in the test with HCT-116 it was > 100 µM (inactive); in the test on SN12C, > 100 µM (inactive); in the test with CCRF-CEM it was 46 µM (inactive). Besides, the GI50 in the test with MDA-N is > 100 µM (inactive).

The record behind these values is ChEMBL document CHEMBL1201862, “PubChem BioAssay data set” (2004).
